Consider 17 molecules from ChEMBL document CHEMBL5107992, “Development of potent non-acylhydrazone inhibitors of intestinal sodium-dependent phosphate transport protein 2b (NaPi2b)” (Bioorg Med Chem, 2022).

Converted amounts (≈) assume the structure as drawn. Bounds are passed on as bounds.

Data set [1] can be described thus: Aqueous solubility of compound in PBS buffer at pH 7.4. The data set is classed as physicochemical.
For data set [2], the target named is T1, Sodium-dependent phosphate transport protein 2B (Homo sapiens, UniProt O95436).
T1 sequence (O95436 whole entry): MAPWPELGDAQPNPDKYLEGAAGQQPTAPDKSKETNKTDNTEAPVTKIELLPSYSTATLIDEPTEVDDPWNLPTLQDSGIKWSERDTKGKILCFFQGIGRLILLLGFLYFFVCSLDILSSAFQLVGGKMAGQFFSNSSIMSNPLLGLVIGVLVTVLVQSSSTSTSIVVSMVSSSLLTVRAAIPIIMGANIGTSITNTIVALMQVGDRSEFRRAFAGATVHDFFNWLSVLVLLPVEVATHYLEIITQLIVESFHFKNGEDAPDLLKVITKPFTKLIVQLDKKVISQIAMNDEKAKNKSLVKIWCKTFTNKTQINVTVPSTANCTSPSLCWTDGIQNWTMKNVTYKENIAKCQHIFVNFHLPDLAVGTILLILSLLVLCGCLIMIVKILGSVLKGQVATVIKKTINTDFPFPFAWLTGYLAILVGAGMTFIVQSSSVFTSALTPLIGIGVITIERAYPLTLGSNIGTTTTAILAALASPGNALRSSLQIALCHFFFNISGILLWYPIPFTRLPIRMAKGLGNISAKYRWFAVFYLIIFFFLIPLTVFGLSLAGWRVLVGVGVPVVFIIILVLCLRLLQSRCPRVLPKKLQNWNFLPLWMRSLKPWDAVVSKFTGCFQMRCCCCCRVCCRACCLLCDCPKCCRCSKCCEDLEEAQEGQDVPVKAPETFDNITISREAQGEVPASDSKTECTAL
The data set can be described thus: Inhibition of human NaPi2b transfected in human KJMGER8 cells assessed as reduction in H2[33P]O4 uptake incubated for 60 mins by TopCount scintillation counting method. The data set is classed as cell-based.

Data set [3] is described as follows: Intestinal availability in rat at 3 mg/kg, po measured after 120 mins by LC/MS-MS analysis. The data set is classed as ADME, organism-based. The conditions noted are these: in vivo, 2 h.
The nature of data set [4]: Membrane permeability of compound. Type of data set: ADME. The conditions noted are these: not told; read-out: permeability.
Data set [5] in a line: Aqueous solubility of compound in PBS buffer at pH 6. The data set is classed as physicochemical.
The nature of data set [6]: Intestinal availability in Sprague-Dawley rat. Type of data set: ADME.

Broadly, the solubility is the concentration that dissolves in the medium under given conditions. Higher therefore signals a readily soluble substance. In general, IC50 refers to the midpoint of a concentration-inhibition curve.

As for `CC1(C)CCc2c(sc3nc(-c4cccc(COCCOCCOCCOCCOCCOCCO)c4)oc(=O)c23)C1`, the concentration in solution in data set [1] (solubility) was 36 µM (≈ 21.8 µg/mL). The IC50 in data set [2] was 2.88 µM.
On to `Cc1nnc(-c2ccc(CCc3ccc(NC(=O)c4c(NC(=O)c5cccc(CN(C)CCOCCOCCOCCC(=O)O)c5)sc5c4CCC(C)(C)C5)cc3)cc2)o1`, for which, in data set [3], the FaFg was determined as 5.9%. The solubility in data set [1] came to 96 µM (≈ 80.5 µg/mL); in data set [5], 52 µM (≈ 43.6 µg/mL). In addition, the Papp in data set [4] was < 0.09 ×10⁻⁶ cm/s. Moreover, in data set [2], the IC50 is 0.014 µM.
As for `COCCN(CCOCCOCCOCCOCCOCCOCc1cccc(C(=O)Nc2sc3c(c2C(=O)N/N=C/c2ccc(Cl)c(C(F)(F)F)c2)CCC(C)(C)C3)c1)CC(=O)O`, the FaFg in data set [6] was 0.1%.
In data set [1], `Cc1nnc(-c2ccc(CCc3ccc(NC(=O)c4c(NC(=O)c5cccc(COCCOCCOCCOCCOCCOCCOCC(=O)O)c5)sc5c4CCC(C)(C)C5)cc3)cc2)o1` came in with a solubility of 62 µM (≈ 58.5 µg/mL). Further, in data set [2], the IC50 was found to be 0.103 µM.
For `Cc1nnc(-c2ccc(CCc3ccc(NC(=O)c4c(NC(=O)c5cccc(COCCOCCOCCOCC(=O)O)c5)sc5c4CCC(C)(C)C5)cc3)cc2)o1`, in that order: 156 µM (≈ 127 µg/mL) and 0.061 µM.
For `Cc1nnc(-c2ccc(CCc3ccc(NC(=O)c4c(NC(=O)c5cccc(CSCCOCCOCCOCCOCCOCCOCCOCCOCCC(=O)O)c5)sc5c4CCC(C)(C)C5)cc3)cc2)o1`, in that order: 91 µM (≈ 96.6 µg/mL) and 0.024 µM.
For `COc1ccc(NC(=O)c2c(NC(=O)c3cccc(COCCOCCOCCOCCOCCOCCO)c3)sc3c2CCC(C)(C)C3)cc1`, in that order: 2.3 µM (≈ 1.68 µg/mL) and 1.14 µM.
Consider `CC1(C)CCc2c(sc(NC(=O)c3cccc(COCCOCCOCCOCCOCCOCCO)c3)c2C(=O)Nc2ccccc2)C1`, for which, in data set [1], the solubility is 81 µM (≈ 56.6 µg/mL). Also, in data set [2], the IC50 stood at 1.4 µM.
`CCC(CC)N(CCN(C)C(=O)CCC(=O)NCCOCCOCCOCCO)Cc1cccc(C(=O)Nc2sc3c(c2C(=O)c2cnn(-c4ccc(Cl)c(C(F)(F)F)c4)c2)CCC(C)(C)C3)c1` displayed a FaFg in data set [6] of 0.2%.
In data set [1], `CC1(C)CCc2c(sc(NC(=O)c3cccc(OCCOCCOCCOCCOCCOCCO)c3)c2C(=O)Nc2ccc(CCc3ccc(C(=O)O)cc3)cc2)C1` returned a solubility of 115 µM (≈ 95.8 µg/mL). In addition, the IC50 in data set [2] was < 0.1 µM.
For `Cc1cc(NC(=O)c2c(NC(=O)c3cccc(OCCOCCOCCOCCOCCOCCOCC(=O)O)c3)sc3c2CCC(C)(C)C3)ccc1CCc1ccc(-c2nccs2)cc1`, in that order: 87 µM (≈ 82.1 µg/mL) and 0.288 µM.
Take `Cc1cc(NC(=O)c2c(NC(=O)c3cccc(OCCOCCOCCOCCOCCOCCOCC(=O)O)c3)sc3c2CCC(C)(C)C3)ccc1CCc1ccc(-c2ncco2)cc1`: the concentration in solution in data set [1] (solubility) came to 79 µM (≈ 73.3 µg/mL). In addition, in data set [2], the IC50 is 0.043 µM.
As for `COC(=O)c1ccc(CCc2ccc(NC(=O)c3c(NC(=O)c4cccc(COCCOCCOCCOCCOCCOCCO)c4)sc4c3CCC(C)(C)C4)cc2C)cc1`, in data set [1], the solubility worked out at 0.72 µM (≈ 0.63 µg/mL). Moreover, in data set [2], the IC50 was < 0.1 µM.
For `COC(=O)c1ccc(CCc2ccc(NC(=O)c3c(NC(=O)c4cccc(OCCOCCOCCOCCOCCOCCO)c4)sc4c3CCC(C)(C)C4)cc2)cc1`, in that order: 1.6 µM (≈ 1.36 µg/mL) and < 0.1 µM.
`CC1(C)CCc2c(sc(NC(=O)c3cccc(COCCOCCOCCOCCOCCOCCO)c3)c2C(=O)Nc2ccc(Cc3ccccc3)cc2)C1` returned a solubility in data set [1] of 0.48 µM (≈ 0.379 µg/mL). The IC50 in data set [2] is < 0.1 µM.
Taken in the same sequence, the figures for `COC(=O)c1ccc(CCc2ccc(NC(=O)c3c(NC(=O)c4cccc(OCCOCCOCCOCCOCCOCCOCC(=O)O)c4)sc4c3CCC(C)(C)C4)cc2C)cc1` were 116 µM (≈ 107 µg/mL) and 0.071 µM.
Molecule `CCc1ccc(NC(=O)c2c(NC(=O)c3cccc(COCCOCCOCCOCCOCCOCCO)c3)sc3c2CCC(C)(C)C3)cc1` yielded a solubility in data set [1] of 0.39 µM (≈ 0.284 µg/mL). Further, the IC50 in data set [2] was < 0.1 µM.
